Data: patent publication US6025491A, “Water soluble onium salt of taxo-diterpenoid” (The Scripps Research Institute, priority 1998, dated 2000)
Counter-ions that a name gives are not always drawn. Like-named read-outs stand apart in the source and are kept apart here. Each block holds one molecule with its values, some of them ahead of it.

Key:
cervical carcinoma [1] = system: cervical carcinoma
[2] = Description: The solubility and partition coefficient data for 2 and taxol were determined using an HPLC method.
Solubility was found by forming a solution in water with the aid of sonication for five minutes, centrifugation of the samples, and injection of the supernatant. The values reported were normalized using calibration curves constructed for both compounds by preparing known concentrations in the range 1×10^-6 to 1×10^-3 M in methylene chloride and subjecting to HPLC analysis under the same conditions. […] Partition coefficients were determined by dissolving the compound in the organic phase, shaking the resulting solution with water for ten minutes, and analyzing each phase by HPLC as above.

tubulin = assay: microtubule (tubulin) polymerization-depolymerization measurements; format: biochemical; details: for suppression of calcium chloride promoted depolymerization: 10^-6 M drug, 0.25 mM CaCl2, OD 340 nm; for suppression of calcium chloride promoted depolymerization / microtubule polymerization-depolymerization: tubulin 1.0 mg/mL; for microtubule polymerization-depolymerization: 10^-6 drug, 1.0 mM GTP, 0.25 mM CaCl2, 37° C.
Description: Tubulin polymerization-depolymerization measurements are illustrate in FIG. 3. Negative controls are shown with triangles; positive taxol controls are shown with diamonds; and taxol-2'-MPT, i.e., compound 2 is shown with dots.
More particularly, measurement were performed in 96 well plates at 37° C. following the protocol of R. Merlock and W. Wrasidlo (Analytical Biochemistry 1993, in press). Calcium chloride addition is indicated by the arrow. In each case, 1.0 mM GTP was used to promote the initial polymerization of tubulin. Negative control employed tubulin (1.0 mg/mL) alone, CaCl2 (0.25 mM) added after 20 minutes. Positive taxol control employed tubulin (1.0 mg/mL) with taxol (10^-6 M) and CaCl2 (0.25 mM) added after 20 minutes. The experimental taxol-2'-MPTemployed tubulin (1.0 mg/mL) with taxol-2'-MPT (10^-6) and CaCl2 (0.25 mM) added after 20 minutes. Turbidity was measured as optical density at 340 nm using a microplate reader (Molecular Devices Thermomax).

[3] = system: A549 non-small cell lung adenocarcinoma xenograft; assay: efficacy in lung tumor xenograft nude mouse model; format: in vivo, nude mice (human lung carcinoma xenografts); details: I.P. day 1, 3 and 7; taxol 18.0 mg/kg in Cremaphor/D5W; 2 at 23.9 mg/kg
human leukemia [4] = system: human leukemia
non-serum proteins = assay: displacement of MPT group by non-serum proteins; format: in vitro ADME; details: tested non-serum proteins
Text: (§1) However, the release of taxol from taxol-2'-MPT can also be catalyzed by serum protein and by proteins having nucleophilic groups. […] Dialysis of the protein:taxol intermediate indicates a dissociation period of hours or days. Displacement of the MPT group by serum proteins seems to be specific for such serum proteins. […] The precise nature of the bonding between the protein and taxol has not been characterized. Scheme 2 illustrates alternative pathways for MPT release.

[5] = kinetics of taxol release from taxol-2'-MPT in aqueous solutions; format: physicochemical; details: 25° C.; for taxol release: over 11 minutes
Description: (§2) Under these conditions 20% of total is recovered. More particularly, Taxol-2'-MPT (2) was dissolved in the aqueous system with the aid of sonication for five minutes. Aliquots were then removed at the times shown and partitioned into methylene chloride to quench the reaction. Samples were then analyzed using a Waters Maxima HPLC instrument equipped with an autoinjector (3.9×300 mm C18 column equipped with a precolumn. The flow rate was 1.5 mL/minute. The eluent gradient A-B extended over 30 minutes. "A" was 80% 80 mM ammonium acetate, pH 6.0. "B" was 100% methanol. An ultraviolet diode array detector was employed. The ratio of compound 2 (Rf 16.2 min.) to taxol (compound 1, Rf 16.8 min.) remaining was determined from the relative areas of the peaks after normalization with previously determined calibration curves.

[6] = taxol release / breakdown of taxol-2'-MPT in plasma; format: in vitro ADME, human
Description: (§3) Due to a difference in retention time using our standard HPLC conditions (see FIG. 1) and differing ultraviolet absorption maxima (1280 /1254 =1.6 for 2 and 0.3 for 1), the stability of 2 was easily assayed by HPLC (FIG. 1). […] In phosphate buffered saline (PBS) or ammonium acetate--phosphate buffer systems of pH 6.0 to 7.3, 2 is stable at 25° C. for over 21 days. Taxol-2'-MPT (2) is, however, unstable in 5% HCl (pH 1.1) and brine.
as §2

[7] = stability measurements by HPLC (solid state and aqueous media); format: physicochemical; details: for stability duration: pH 6.0 to 7.3, 25° C.
Description: as §3, §2

serum protein = assay: displacement of MPT group by serum protein, dialysis of protein:taxol intermediate; format: in vitro ADME; details: contacted with serum protein
immunoglobulins = assay: displacement of MPT group by immunoglobulins; format: in vitro ADME
Text: as §1

[8] = self-assembly: optical density at 340 nm and transmission electron microscopy; format: physicochemical
Text: Transmission electron microscopy (TEM) confirmed the presence of supramolecular structures in these solutions. […] It is likely that the long term stability of these solutions is due, at least in part, to stabilization provided by this structured environment.

serum albumen = assay: displacement of MPT group by serum albumen; format: in vitro ADME
Text: as §1

metastatic melanoma [9] = system: metastatic melanoma
metastatic melanoma [10] = assay: cytotoxicity (XTT), metastatic melanoma
cervical carcinoma [11] = assay: cytotoxicity (XTT), cervical carcinoma
[12] = background statement; cited from earlier work
human leukemia [13] = assay: cytotoxicity (XTT), human leukemia
[14] = formulated in Cremaphor (polyoxyethylated castor oil) and ethanol; cited from earlier work

- activity in displacing the MPT group (non-serum proteins): seemed to lack this activity
- taxol release ([5]; 5% dextrose): no taxol release is observed
- taxol release ([5]; pH 6.2 phosphate buffered saline): no taxol release is observed
- taxol release ([5]; sterile water): no taxol release is observed
- breakdown in human plasma ([6]; incubated at 37° C. with human plasma): breaks down rapidly
- time to complete conversion of 2 into taxol ([6]; plasma, methylene chloride extraction, 25° C.): ≤ 10 min
- taxol discharge in sera ([6]; sera): rapidly discharges taxol in sera
- stability ([7]; 5% HCl (pH 1.1)): unstable
- stability duration ([7]; ammonium acetate--phosphate buffer systems): over 21 days
- stability ([7]; aqueous media at physiological pH and ion strength): essentially completely stable
- stability ([7]; brine): unstable
- stability, onset of slow degradation ([7]; in 1.5% saline): > 4 days
- stability, onset of slow degradation ([7]; in 5% dextrose): > 4 days
- stability, onset of slow degradation ([7]; in water): > 4 days
- stability duration ([7]; phosphate buffered saline (PBS)): over 21 days
- effectiveness in displacing the MPT group (immunoglobulins): particularly effective
- critical concentration for exponential increase in optical density (critical aggregation concentration) ([8]; OD 340 nm, buffered solutions): 400 µM
- diameter of fibrillar aggregates ([8]; TEM, fibrillar structure): ca. 80 Å
- helical twist of fibrillar aggregates ([8]; TEM, fibrillar structure): about 7
- length of fibrillar aggregates ([8]; TEM, fibrillar structure): up to 800 Å
- diameter of spherical structures ([8]; TEM, freshly sonicated solutions): about 50 Å
- concentration above which haze and diffuse light scattering appear ([8]; buffered solutions): greater than 1×10^-3 M
- appearance of water solutions ([8]; water, all concentrations examined): optically clear
- effectiveness in displacing the MPT group (serum albumen): particularly effective
Structure (SMILES): CC(=O)O[C@H]1C(=O)[C@@]2(C)[C@H]([C@H](OC(=O)c3ccccc3)[C@]3(O)C[C@H](OC(=O)[C@H](Oc4cccc[n+]4C)[C@@H](NC(=O)c4ccccc4)c4ccccc4)C(C)=C1C3(C)C)[C@]1(OC(C)=O)CO[C@@H]1C[C@@H]2O [taxol-2'-MPT, Taxol-2'-MPT (methylpyridinium tosylate)]
- cytotoxicity level (cervical carcinoma [1]): Extremely high
- solubility in water compared with taxol [2]: significantly more soluble in water than the parent taxol
- suppression of calcium chloride promoted depolymerization (tubulin): not by taxol-2'-MPT
- microtubule polymerization-depolymerization (tubulin; listed as 2): does not affect the tubulin-microtubule equilibria
- microtubule polymerization-depolymerization (tubulin; listed as taxol-2'-MPT (2)): very similar to GTP-saline controls and drastically different from taxol
- binding to tubulin in the manner of taxol (tubulin; buffered aqueous environment): does not appear to bind to tubulin in the manner of taxol
- control of tumor growth compared with taxol [3]: at least comparable to that of taxol
- cytotoxicity level (human leukemia [4]): Extremely high
- stability in water and aqueous buffer solutions [5]: stable in water and aqueous buffer solutions
- reaction with serum protein (serum protein): observed to displace its MPT group and form a protein:taxol intermediate
- cytotoxicity level (metastatic melanoma [9]): Extremely high

Structure (SMILES): CC(=O)O[C@H]1C(=O)[C@@]2(C)[C@H]([C@H](OC(=O)c3ccccc3)[C@]3(O)C[C@H](OC(=O)[C@H](O)[C@@H](NC(=O)c4ccccc4)c4ccccc4)C(C)=C1C3(C)C)[C@]1(OC(C)=O)CO[C@@H]1C[C@@H]2O [taxol]
- Partition Coefficient [octanol]/[water] [2]: > 10000
- Solubility in Water ([2]; water): < 1.5 µM
- cytotoxicity level (metastatic melanoma [10]): Extremely high
- suppression of calcium chloride promoted depolymerization (tubulin): suppressed by taxol
- microtubule stabilization by taxol recovered from plasma treated with 2 (tubulin; taxol recovered from human plasma treated with 2): exhibited the expected microtubule stabilization
- cytotoxicity level (cervical carcinoma [11]): Extremely high
- water solubility [12]: less than 1.5×10^-6 M
- cytotoxicity level (human leukemia [13]): Extremely high
- side effects of formulation [14]: hypersensitivity reactions
